# Assay results from ChEMBL document CHEMBL3886937, “Pyrimidodiazepinone compound” (2016).
# Experiment: [3H]-Gabapentin Binding Assay: A test compound (20 μL) diluted to 5 times of the final concentration with Binding buffer, [3H]-gabapentin diluted to 100 nmol/L with binding buffer [20 μL (final concentration 20 nmol/L)], and the rat cerebral cortex membrane fraction (60 μL; 12 μg membrane fraction) obtained in the (1) above were added to each well of a 96-well round-bottom plate. After being sufficiently mixed, these were allowed to react at room temperature for 1 hour. After the reaction, the reaction sample was suction filtered using a filter plate with 50 μL/well of 0.3 vol % polyethyleneimine added, and a cell harvester. The filter was then washed with ice-cooled Wash buffer (100 mmol/L NaCl, 0.1 w/v % BSA). After being washed, the filter plate was dried, and a scintillation cocktail (MicroScint-20, purchased from PerkinElmer) was added (50 μL/well), and the radioactivity on the filter was measured. The radioactivity obtained in the absence of the test compound was measured as total binding amount, and the radioactivity obtained by addition of an unlabeled gabapentin (final concentration 100 mmol/L) as a test compound was measured as non-specific binding amount.
row,SMILES,IC50 [nM]
1,CCNc1ncc2c(n1)N1CCC[C@H]1CN(c1scc3c(=O)n(C)cnc13)C2=O,3
2,CCNc1ncc2c(n1)N1CCC[C@H]1CN(c1cccc3c(=O)n(C)ccc13)C2=O,5
3,CNc1ncc2c(n1)N1CCC[C@H]1CN(c1cccc3c(=O)n(CCCN(C)C)cnc13)C2=O,1.2
4,CNc1ncc2c(n1)N1CCC[C@H]1CN(c1c[nH]c3ncn(C)c(=O)c13)C2=O,3.6
5,CCNc1ncc2c(n1)N1CCC[C@H]1CN(c1cccc3c(=O)n(CCF)c(C)nc13)C2=O,4.8
6,CNc1ncc2c(n1)N1CCC[C@H]1CN(c1cccn3c(=O)c(C)c(C)nc13)C2=O,4.7
7,CCCNc1ncc2c(n1)N1CCC[C@H]1CN(c1cccc3c(=O)n(C)cnc13)C2=O,3
8,CCNc1ncc2c(n1)N1CCC[C@H]1CN(c1cccc3ncn(C)c(=O)c13)C2=O,3.9
9,CCNc1ncc2c(n1)N1CCC[C@H]1CN(c1c[nH]c3ncn(C)c(=O)c13)C2=O,2.6
10,CCNc1ncc2c(n1)N1CCC[C@H]1CN(c1cccc3c(=O)n(CCCN(C)C)cnc13)C2=O,0.7
11,CCNc1ncc2c(n1)N1CCC[C@H]1CN(c1cccc3c(=O)n(C)c(COC)nc13)C2=O,3.8
12,CCn1cnc2c(N3C[C@@H]4CCCN4c4nc(NC)ncc4C3=O)cccc2c1=O,4
13,CNc1ncc2c(n1)N1CCC[C@H]1CN(c1cccc3c(=O)n(C)cnc13)C2=O,2.6
14,CNc1ncc2c(n1)N1CCC[C@H]1CN(c1cncc3c(=O)n(C)cnc13)C2=O,4.1
15,CCNc1ncc2c(n1)N1CCC[C@H]1CN(c1cccn3c(=O)c(C)c(C)nc13)C2=O,2.7
16,CCNc1ncc2c(n1)N1CCC[C@H]1CN(c1cccc3c(=O)n(C)c(C)nc13)C2=O,2.6
17,CCNc1ncc2c(n1)N1CCC[C@H]1CN(c1cccn3c(=O)cc(C)nc13)C2=O,5.2
